Measured values published in ChEMBL document CHEMBL3046893, “Antimicrobial screening of novel synthesized benzimidazole nucleus containing 4-oxo-thiazolidine derivatives” (2012).
Converted amounts (≈) assume the structure as drawn.

Tests used:
Assay type in all cases: functional
Aspergillus clavatus = assay: Antifungal activity against Aspergillus clavatus MTCC 1323
Aspergillus niger = assay: Antifungal activity against Aspergillus niger MTCC 282
Candida albicans = assay: Antifungal activity against Candida albicans MTCC 227
Streptococcus pyogenes = assay: Antibacterial activity against Streptococcus pyogenes MTCC 442 after 24 to 48 hr by serial broth dilution method
Staphylococcus aureus = assay: Antibacterial activity against Staphylococcus aureus MTCC 96 after 24 to 48 hr by serial broth dilution method
Escherichia coli = assay: Antibacterial activity against Escherichia coli MTCC 443 after 24 to 48 hr by serial broth dilution method
Pseudomonas aeruginosa = assay: Antibacterial activity against Pseudomonas aeruginosa MTCC 1688 after 24 to 48 hr by serial broth dilution method

Compound	MIC (Aspergillus clavatus) [µg/mL]	MIC (Aspergillus niger) [µg/mL]	MIC (Candida albicans) [µg/mL]	MIC (Streptococcus pyogenes; read-out: MIC) [µg/mL]	MIC (Staphylococcus aureus) [µg/mL]	MIC (Escherichia coli) [µg/mL]	MIC (Pseudomonas aeruginosa) [µg/mL]	MIC (Streptococcus pyogenes) [µg/mL]
Cc1ccc2nc(-c3ccccc3N3C(=O)CSC3c3ccccc3Cl)[nH]c2c1 (stereo unspecified)	1000 (≈ 2380 µM)	1000 (≈ 2380 µM)	1000 (≈ 2380 µM)	1000 (≈ 2380 µM)	500 (≈ 1190 µM)	1000 (≈ 2380 µM)	1000 (≈ 2380 µM)	–
Cc1ccc2nc(-c3ccccc3N3C(=O)CSC3c3ccc(O)cc3)[nH]c2c1 (stereo unspecified)	1000 (≈ 2490 µM)	1000 (≈ 2490 µM)	1000 (≈ 2490 µM)	500 (≈ 1250 µM)	500 (≈ 1250 µM)	125 (≈ 311 µM)	250 (≈ 623 µM)	–
CC1(C)S[C@@H]2[C@H](NC(=O)[C@H](N)c3ccccc3)C(=O)N2[C@H]1C(=O)O [AMPICILLIN]	–	–	–	100 (≈ 286 µM)	250 (≈ 715 µM)	100 (≈ 286 µM)	100 (≈ 286 µM)	–
Cc1ccc2nc(-c3ccccc3N3C(=O)CSC3c3ccc(Cl)cc3)[nH]c2c1 (stereo unspecified)	1000 (≈ 2380 µM)	500 (≈ 1190 µM)	500 (≈ 1190 µM)	62.5 (≈ 149 µM)	100 (≈ 238 µM)	125 (≈ 298 µM)	250 (≈ 595 µM)	–
COc1ccc(C2SCC(=O)N2c2ccccc2-c2nc3ccc(C)cc3[nH]2)cc1OC (stereo unspecified)	1000 (≈ 2240 µM)	1000 (≈ 2240 µM)	500 (≈ 1120 µM)	1000 (≈ 2240 µM)	100 (≈ 224 µM)	100 (≈ 224 µM)	250 (≈ 561 µM)	–
COC1=CC(=O)C[C@@H](C)[C@]12Oc1c(Cl)c(OC)cc(OC)c1C2=O [GRISEOFULVIN]	100 (≈ 283 µM)	100 (≈ 283 µM)	500 (≈ 1420 µM)	–	–	–	–	–
COc1cc(C2SCC(=O)N2c2ccccc2-c2nc3ccc(C)cc3[nH]2)cc(OC)c1OC (stereo unspecified)	1000 (≈ 2100 µM)	1000 (≈ 2100 µM)	500 (≈ 1050 µM)	250 (≈ 526 µM)	500 (≈ 1050 µM)	500 (≈ 1050 µM)	250 (≈ 526 µM)	–
Cc1ccc2nc(-c3ccccc3N3C(=O)CSC3c3ccc(Cl)cc3Cl)[nH]c2c1 (stereo unspecified)	500 (≈ 1100 µM)	500 (≈ 1100 µM)	250 (≈ 550 µM)	–	1000 (≈ 2200 µM)	62.5 (≈ 138 µM)	100 (≈ 220 µM)	500 (≈ 1100 µM)

Continued, values first:

MIC (Aspergillus clavatus) [µg/mL]	MIC (Aspergillus niger) [µg/mL]	MIC (Candida albicans) [µg/mL]	MIC (Streptococcus pyogenes; read-out: MIC) [µg/mL]	MIC (Staphylococcus aureus) [µg/mL]	MIC (Escherichia coli) [µg/mL]	MIC (Pseudomonas aeruginosa) [µg/mL]	MIC (Streptococcus pyogenes) [µg/mL]	Compound
1000 (≈ 2100 µM)	1000 (≈ 2100 µM)	1000 (≈ 2100 µM)	1000 (≈ 2100 µM)	62.5 (≈ 131 µM)	62.5 (≈ 131 µM)	250 (≈ 526 µM)	–	Cc1ccc2nc(-c3ccccc3N3C(=O)CSC3c3ccc([N+](=O)[O-])cc3[N+](=O)[O-])[nH]c2c1 (stereo unspecified)
100 (≈ 249 µM)	1000 (≈ 2490 µM)	500 (≈ 1250 µM)	125 (≈ 311 µM)	250 (≈ 623 µM)	500 (≈ 1250 µM)	250 (≈ 623 µM)	–	Cc1ccc2nc(-c3ccccc3N3C(=O)CSC3c3cccc(O)c3)[nH]c2c1 (stereo unspecified)
1000 (≈ 2480 µM)	500 (≈ 1240 µM)	500 (≈ 1240 µM)	250 (≈ 620 µM)	250 (≈ 620 µM)	250 (≈ 620 µM)	250 (≈ 620 µM)	–	Cc1ccc2nc(-c3ccccc3N3C(=O)CSC3c3ccc(F)cc3)[nH]c2c1 (stereo unspecified)
1000 (≈ 2320 µM)	1000 (≈ 2320 µM)	500 (≈ 1160 µM)	250 (≈ 581 µM)	250 (≈ 581 µM)	500 (≈ 1160 µM)	250 (≈ 581 µM)	–	Cc1ccc2nc(-c3ccccc3N3C(=O)CSC3c3ccc([N+](=O)[O-])cc3)[nH]c2c1 (stereo unspecified)
1000 (≈ 2320 µM)	1000 (≈ 2320 µM)	1000 (≈ 2320 µM)	250 (≈ 581 µM)	1000 (≈ 2320 µM)	500 (≈ 1160 µM)	250 (≈ 581 µM)	–	Cc1ccc2nc(-c3ccccc3N3C(=O)CSC3c3ccccc3[N+](=O)[O-])[nH]c2c1 (stereo unspecified)
1000 (≈ 2320 µM)	100 (≈ 232 µM)	100 (≈ 232 µM)	62.5 (≈ 145 µM)	100 (≈ 232 µM)	25 (≈ 58.1 µM)	250 (≈ 581 µM)	–	Cc1ccc2nc(-c3ccccc3N3C(=O)CSC3c3cccc([N+](=O)[O-])c3)[nH]c2c1 (stereo unspecified)
